Measurements reported in US6297216A, “Compounds for reversing drug resistance” (Solvo Biotechnology, priority 1997, dated 2001).
Where two headings read alike, the source gives them in different places. Peptide text beside a SMILES is read from it. * marks the point of attachment. Cbz = O=C(OCc1ccccc1)*; Boc = CC(C)(C)OC(=O)*; OBn = c1ccc(CO*)cc1; OtBu = CC(C)(C)O*

Legend:
[1] = In vivo acute and subacute toxicity; parameters: species or system rat; conditions: rats, two-week follow-up
Procedure: The safety of Reversins for human administration can be confirmed in appropriate animal models. For example, the in vivo acute and subacute toxicity of Reversins was examined in laboratory rats. Reversins 121 and 205 solutions were prepared and administered as follows. Type A solutions contained 50 μg/ml Reversin 121 or 205 in 20% ethanol in physiological saline. Type B solutions contained 1 mg/ml in glycerol, containing 10% ethanol. Type A solutions (0.5 ml) were administered intravenously to three laboratory rats weighing 200-250 g each (about 100-125 μg/kg) twice daily for 3 days. Type B solutions (0.5 ml) were given to similar rats (2-2.5 mg/kg) by intraperitoneal injection, twice daily for three days. Control rats received the same solutions without the Reversins.

[2] = tested on: KBV1 cells; experiment: Cytotoxicity of Reversin alone in multidrug-resistant KBV1 cells; format: cell-based, human; conditions: MDR1-expressing cells, FIG. 11(A)
Procedure: (§1) NIH 3T3 cells were cultured under standard conditions in D-MEM medium. MDR1-transfected cells (NIH MDR1 G185) were prepared and characterized for their drug-resistant properties as described (Ambdukar et al. Proc. Natl. Acad. Sci. USA 89:8472-8476, 1992; Bruggemann et al. J. Biol. Chem. 267:21020-21026, 1992; Sarkadi et al. 1992 supra). Before each experiment the cells were trypsinized, then washed and stored in D-MEM medium at 37° C. KBV1 (MDR1^+) and KB3 (MDR1^-) human tumor cells were also cultured in D-MEM, which K562 human tumor cells were grown in RPMI medium, supplemented with 10% FCS.
In these studies, adriamycin, vincristine, and vinblastine, in originally ineffective concentrations, become effectively cytotoxic in the presence of 1-10 μg/ml of Reversins 121 or 205. FIGS. 10A and 10B present such an experiment for Reversin 205 using K562 human erythroblastoid tumor cells and their adriamycin-selected multidrug-resistant subline. FIGS. 11A and 11B are similar experiments with the […] tumor cells KB3 and KBV1, the latter being a multidrug resistant subline. […] Such a collateral toxic effect (which may be due to the ATP-consuming futile functioning of the drug transporter) can be greatly advantageous in treating drug-resistant tumors.

[3] = target: T1, MDR1 (Homo sapiens, UniProt P08183)
From the text: (§5) The second assay is based on the measurement of fluorescent dye uptake into intact cells. […] These hydrophobic dye esters are non-fluorescent outside the cell are cleaved by intracellular esterases into hydrophilic fluorescent free acids.

[4] = tested on: multidrug-resistant human tumor cell lines; experiment: Enhancement of cytotoxicity of drugs in multidrug-resistant human tumor cell lines; format: cell-based; conditions: K562 MDR and KBV1 sublines, FIGS. 10-11
Procedure: as §1
Another method for assessing the ability of Reversins to inhibit drug resistance is to measure the cytotoxicity of drugs in multidrug-resistant human tumor cell lines. Since MDR1 normally lowers the concentration of cytotoxic agents to subtoxic concentrations by extruding them from the cell, inhibition of MDR1 would be expected to enhance cytotoxicity.
In these studies, adriamycin, vincristine, and vinblastine, in originally ineffective concentrations, become effectively cytotoxic in the presence of 1-10 μg/ml of Reversins 121 or 205. FIGS. 10A and 10B present such an experiment for Reversin 205 using K562 human erythroblastoid tumor cells and their adriamycin-selected multidrug-resistant subline. […]

[5] = target: T1, MDR1; remark: listed apart in the source
[6] = target: T1, MDR1; experiment: Flow-cytometric fluorescent dye uptake in multidrug-resistant leukocytes of a leukemic patient; format: cell-based; parameters: endogenous in cells; host or cells: white blood cells isolated from the blood of a leukemic patient; conditions: 5 μM, 37° C., 10 minutes, FIG. 8
Procedure: Fluorescence measurements were done in 60 sec scanning periods using a Cytoronabsolut instrument (Ortho Diagnostic Systems, NJ). The excitation was set to 488 nm. Green fluorescence was measured with a filter with a range of 515-548 nm, while red fluorescence was measured above 620 nm.
By using the some fluorescent dye extrusion assay described above the in vitro effects of Reversins on the multidrug-resistant leukocytes of a leukemic patient were studied. Cells were isolated by withdrawing blood from the patient, and isolating white blood cells by centrifugation. Cells can be isolated from other types of tumors by biopsy. A flow cytometer was used to measure fluorescent dye loading of individual cells, which had been previously shown to express MDR1, in the absence or presence of Reversin 205 (FIG. 8). The uptake of fluorescent dye under these conditions models the uptake of cytotoxic drugs into the tumor cells. Fluorescent dye uptake was measured at 37° C. for 10 minutes. […] Further details for the method are provided by Hollo et al., supra.

[7] = tested on: P388-MDR cells; experiment: Mouse P388-MDR leukemia model, survival; format: in vivo; conditions: 1 mg/kg/day for 6 days, mice injected with P388-MDR cells
From the text: (§2) In vivo animal studies for the effectiveness of Reversins can be conducted using any suitable animal model system known to those skilled in the art. One example of an appropriate system is the mouse P388 leukemia model system (Tsurouo et al., supra). This animal model is widely accepted for testing the effect of cytotoxic antileukemic agents or response-modifier compounds.
(§3) Inbred (DBA×black F1) mice received 10^6 P388 leukemia cells by intraperitoneal injection. The survival of the mice was followed. The mice were injected with control P388 cells, as well as with P388 cells that had been selected under drug exposure. Drug exposure induced over-expression of the MDR1 protein (P388-MDR cells).
(§4) The mice injected with the P388 cells were treated with doxorobicin (adriamycin) in a dose of 1 mg/kg/day for 6 days after the injection of the P388 cells. […] Reversin can be administered to the animals in a dose of 2 mg/kg, a level which has no toxic effect on the control animals, as discussed above.

[8] = tested on: control P388 cells; experiment: Mouse P388 leukemia model, survival; format: in vivo; conditions: 1 mg/kg/day for 6 days, mice injected with control P388 cells
From the text: as §2, §3, §4

[9] = tested on: control NIH 3T3 cells; experiment: Fluorescent dye accumulation in fibroblasts which do not overexpress MDR1; format: cell-based, mouse; conditions: fibroblasts which do not overexpress MDR1, FIG. 6
Procedure: NIH 3T3 cells were cultured under standard conditions in D-MEM medium. […] Before each experiment the cells were trypsinized, then washed and stored in D-MEM medium at 37° C. KBV1 (MDR1^+) and KB3 (MDR1^-) human tumor cells were also cultured in D-MEM, which K562 human tumor cells were grown in RPMI medium, supplemented with 10% FCS.
Human MDR1-transfected mouse fibroblasts and MDR1-expressing human tumor cells actively extrude the AM forms of several fluorescent indicators, lowering the level of intracellular fluorescence in cells with active multidrug transport.
Dye uptake was measured by incubating 2×10^6 cells/ml D-MEM medium at 37° C. in the presence of 0.5 μM Fura-2 AM (added in 5 mM stock solution in DMSO), then rapidly spinning the cells (15 sec, 12,000×g), and rinsing the pellet with HPM1 medium (containing 120 mM NaCl, 5 mM kcl, 0.4 mM MgCl2, 0.04 mM CaCl2, 10 mM HEPES-Na (pH 7.4), 10 mM NaHCO3, 10 mM glucose, and 5 mM Na2 HPO4). The cells were resuspended in 2 ml HPM1 and fluorescence was measured with rapid stirring in a Hitachi F-4000 fluorescent spectrophotometer. The excitation wavelength was 340 nm, and emission was measured at 410 nm. Maximum fluorescence and dye concentration were measured after the addition of 0.5% Triton X-100 and 2 mM CaCl2 to the medium. The dye concentration was calibrated based on the measurements of free acid dye fluorescence in the same instrument under identical conditions.

[10] = target: T1, MDR1; experiment: Fluorescent dye (Fura-2 AM) extrusion assay in MDR1-transfected NIH 3T3 fibroblasts; conditions: MDR1-expressing fibroblasts, FIG. 6
From the text: as §5

[11] = intraperitoneal, 2-2.5 mg/kg twice daily for three days
[12] = intravenous, about 100-125 μg/kg twice daily for 3 days

T1 sequence (P08183 whole entry): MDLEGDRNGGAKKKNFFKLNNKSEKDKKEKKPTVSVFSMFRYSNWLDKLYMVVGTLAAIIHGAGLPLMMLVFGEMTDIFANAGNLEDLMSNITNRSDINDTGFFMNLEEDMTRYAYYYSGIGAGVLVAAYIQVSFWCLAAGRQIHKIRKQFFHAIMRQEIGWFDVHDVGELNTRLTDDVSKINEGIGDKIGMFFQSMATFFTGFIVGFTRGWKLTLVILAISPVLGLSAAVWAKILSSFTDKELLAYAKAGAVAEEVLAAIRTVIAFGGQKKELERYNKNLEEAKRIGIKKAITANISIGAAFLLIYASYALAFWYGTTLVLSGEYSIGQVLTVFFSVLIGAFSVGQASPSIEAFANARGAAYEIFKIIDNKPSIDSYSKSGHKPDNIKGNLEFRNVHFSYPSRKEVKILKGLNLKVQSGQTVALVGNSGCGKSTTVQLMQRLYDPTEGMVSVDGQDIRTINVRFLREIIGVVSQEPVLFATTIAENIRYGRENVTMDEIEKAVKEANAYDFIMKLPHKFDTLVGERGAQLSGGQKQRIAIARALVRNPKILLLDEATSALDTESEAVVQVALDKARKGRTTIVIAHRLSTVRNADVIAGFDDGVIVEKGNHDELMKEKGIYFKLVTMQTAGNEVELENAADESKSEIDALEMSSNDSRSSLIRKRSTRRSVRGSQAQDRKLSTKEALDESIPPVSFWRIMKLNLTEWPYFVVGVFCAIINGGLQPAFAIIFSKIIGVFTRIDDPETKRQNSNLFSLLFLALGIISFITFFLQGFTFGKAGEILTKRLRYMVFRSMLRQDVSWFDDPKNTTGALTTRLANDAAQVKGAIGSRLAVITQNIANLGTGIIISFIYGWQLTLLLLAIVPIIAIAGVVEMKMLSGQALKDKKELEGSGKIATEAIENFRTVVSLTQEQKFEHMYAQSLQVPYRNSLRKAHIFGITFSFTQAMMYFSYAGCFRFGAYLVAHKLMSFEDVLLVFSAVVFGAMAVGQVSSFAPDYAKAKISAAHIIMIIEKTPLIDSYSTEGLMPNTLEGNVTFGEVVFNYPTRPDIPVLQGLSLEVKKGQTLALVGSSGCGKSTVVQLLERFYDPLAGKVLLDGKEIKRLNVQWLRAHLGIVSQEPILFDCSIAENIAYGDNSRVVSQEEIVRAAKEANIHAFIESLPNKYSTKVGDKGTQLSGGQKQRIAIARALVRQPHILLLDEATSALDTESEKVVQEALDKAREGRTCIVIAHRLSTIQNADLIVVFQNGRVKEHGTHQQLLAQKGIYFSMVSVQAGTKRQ

CC(C)(C)OC(=O)N[C@@H](CC(=O)OCc1ccccc1)C(=O)N[C@@H](CCCCNC(=O)OCc1ccccc1)C(=O)OC(C)(C)C [Reversin 121, BOC-Asp(OBzl)-Lys(Z)-OtBu] (Boc-Asp(OBn)-Lys(Cbz)-OtBu)
acute or subacute toxicity [1, 11]: no acute or subacute toxicity
acute or subacute toxicity [1, 12]: no acute or subacute toxicity
cytotoxicity without vinblastine [2]: cytotoxic
inhibition of Fura2-AM dye extrusion [3]: inhibit this dye extrusion
Reversin concentration at which originally ineffective adriamycin, vincristine and vinblastine become effectively cytotoxic [4]: 1 to 10 µg/mL
half-maximal activating concentration (Ka) of MDR1-ATPase [5]: approximately 60 nM
stimulation of MDR1-ATPase [5]: greatly stimulated

COC(=O)[C@H](CCCCNC(=O)[C@H](CCC(=O)OCc1ccccc1)NC(=O)OC(C)(C)C)NC(=O)[C@H](CCC(=O)OCc1ccccc1)NC(=O)OC(C)(C)C [Reversin 205, N^α, N^ε -bis[BOC-Glu(OBzl)]-Lys-OMe]
acute or subacute toxicity [1, 11]: no acute or subacute toxicity
acute or subacute toxicity [1, 12]: no acute or subacute toxicity
dye extrusion by MDR1 [6]: blocked dye extrusion
fluorescent dye uptake [6]: significantly increased
inhibition of Fura2-AM dye extrusion [3]: inhibit this dye extrusion
Reversin concentration at which originally ineffective adriamycin, vincristine and vinblastine become effectively cytotoxic [4]: 1 to 10 µg/mL
concentration giving strong inhibition of the MDR1-ATPase [5]: above 1 μM
half-maximal activating concentration (Ka) of MDR1-ATPase [5]: about 30 nM
stimulation of MDR1-ATPase [5]: greatly stimulated

COc1cccc2c1C(=O)c1c(O)c3c(c(O)c1C2=O)C[C@@](O)(C(=O)CO)C[C@@H]3O[C@H]1C[C@H](N)[C@H](O)[C@H](C)O1 [adriamycin]
prolongation of lifetime [7]: did not significantly prolong
survival time [8]: > 30 days

C=C[C@H]1C[N@@]2CC[C@H]1C[C@H]2[C@H](O)c1ccnc2ccc(OC)cc12 [quinine, reference compound]
stimulation of MDR1-ATPase [5]: stimulated

[Na+].[Na+].[Na+].[O]=[V]([O-])([O-])[O-] [sodium orthovanadate]
effect on dye accumulation [9]: no effect
block of MDR1-specific dye-AM extrusion [10]: blocked

COc1ccc(CCN(C)CCCC(C#N)(c2ccc(OC)c(OC)c2)C(C)C)cc1OC (centres unmarked) [verapamil]
effect on dye accumulation [9]: no effect

CC[C@]1(O)C[C@H]2CN(CCc3c([nH]c4ccccc34)[C@@](C(=O)OC)(c3cc4c(cc3OC)N(C=O)[C@H]3[C@@](O)(C(=O)OC)[C@H](OC(C)=O)[C@]5(CC)C=CCN6CC[C@]43[C@@H]65)C2)C1 [vincristine, reference compound]
effect on dye accumulation [9]: no effect
block of MDR1-specific dye-AM extrusion [3]: blocked
inhibition of Fura2-AM dye extrusion [3]: inhibit this dye extrusion
stimulation of MDR1-ATPase [5]: stimulated
